# Assay results reported in article PMC7851014 (Investigational New Drugs, 2020).
# Read-outs that look alike come from different tables or passages of the source.
# Tests used:
# [1] = Ibrutinib and SMT-conjugate pharmacokinetics in human subjects (plasma of patients A and B); details: for Tmax / half-life / concentration at 1.4 h / concentration at 0.5 h / concentration at 0.8 h / concentration at 22.7 h / concentration at 22.2 h / concentration at 22.6 h / concentration at 2.5 h / concentration at 3.8 h / concentration at 1.5 h / concentration at 23.3 h / concentration at 2.8 h / concentration at 4.1 h / concentration at 4.4 h / concentration at 2.4 h / concentration at 3.9 h: human; for concentration at 2.5 h: sample ID 13, T 2.5 h; for concentration at 2.5 h / concentration at 3.8 h / concentration at 2.8 h / concentration at 4.1 h / concentration at 4.4 h / concentration at 2.4 h / concentration at 3.9 h: group max; for concentration at 2.8 h: sample ID 4, T 2.8 h; for concentration at 2.4 h: sample ID 12, T 2.4 h; for concentration at 3.9 h: sample ID 17, T 3.9 h
# Description: (§1) For analysis, 200 μL acetonitrile containing the internal standards was added to 100 μL sample. After mixing and centrifuging, 200 μL supernatant was transferred, and thereafter the solvent was partially evaporated. Before the samples were analyzed by ultra-high-performance liquid chromatography with mass spectrometer detection [21], 100 μL of mobile phase (water:acetonitrile:formic acid, 90:10:0.1 (v:v:v)) was added.
# When no time was available at all, the sample was omitted. […] Pharmacokinetic (PK) data was analyzed using the PKNCA package (version 0.8.1) [22] for the statistical software R (version 3.4.2) [23] and RStudio (version 1.1.383) [24].
# [2] = Human ibrutinib metabolism during CYP3A4 inhibition (patient C, plasma, concomitant voriconazole); details: for half-life / AUC(0-t): human, plasma, oral; for AUC(0-t): 140 mg; for Exposure relative to Sum of quantified compounds / Exposure relative to ibrutinib: patient C, AUC0-24h,ss, concomitant voriconazole
# Description: as §1
# Time-concentration data of three patients were analyzed. […] When no time was available at all, the sample was omitted. […] Pharmacokinetic (PK) data was analyzed using the PKNCA package (version 0.8.1) [22] for the statistical software R (version 3.4.2) [23] and RStudio (version 1.1.383) [24].
# [3] = test system: ciPTEC; details: for detection as secondary bioactivation-metabolite of ICYS: ciPTEC
# Description: Medium and cell lysate samples were taken at 1, 2, 3 and 4 h. Each time point was measured in duplicate. Preincubation (t0) analyte concentrations in medium were also analyzed.
# [4] = Half-life of IGSH in human plasma; format: in vitro ADME; details: 37 °C, in vitro
# [5] = test system: ɣ-GT from equine kidney; assay: ɣ-glutamyl transferase assay (conversion of IGSH to ICGS); format: biochemical; details: approximate kinetic parameters
# Description: IGSH was incubated with 50 mU/L ɣ-GT in a concentration range of 10–10,000 nM in phosphate buffer (100 mM, pH 7.4) at 37 °C. Michaelis-Menten kinetics were calculated by Eadie-Hofstee transformation.
# [6] = Metabolism of IGSH in culture medium; format: in vitro ADME
# Description: During ibrutinib incubations, IGSH was formed intracellularly and transported extracellularly where it was metabolized to ICGS and further to ICYS. IGSH and ICYS were mainly found intracellularly. […] Medium composition influences the metabolism of IGSH. IGSH was metabolized 32% faster in medium with 10% calf serum, when compared to serum-free samples. Medium that was pre-incubated with ciPTEC for 48 h (conditioned medium) was included in the experiments to investigate the possible role of secreted enzymes in the medium. The metabolism of IGSH to ICGS appeared to be 36% faster in conditioned medium.
# [7] = molecular target: dehydropeptidase I; details: cited from earlier work
# [8] = test system: GST; design: method as in PMID 8706007; details: cited from earlier work
# [9] = test system: GST; assay: GST activity in ciPTEC lysate; details: 100 μM, pre-incubating lysate for 2.5 h
# [10] = 420 mg, patient A, sample ID 2, T 1.4 h, 1xdd 420mg, group abs
# [11] = 420 mg, patient A, sample ID 5, T 0.5 h, 1xdd 420mg, group abs
# [12] = 420 mg, patient A, sample ID 6, T 0.8 h, 1xdd 420mg, group abs
# [13] = 420 mg, patient A, sample ID 8, T 22.7 h, 1xdd 420mg, group trough
# [14] = 420 mg, patient A, sample ID 10, T 22.2 h, 1xdd 420mg, group trough
# [15] = 420 mg, patient A, sample ID 11, T 22.6 h, 1xdd 420mg, group trough
# [16] = 420 mg, patient A, sample ID 14, T 3.8 h, 1xdd 420mg
# [17] = 420 mg, patient A, sample ID 16, T 1.5 h, 1xdd 420mg, group abs
# [18] = 420 mg, patient A, sample ID 19, T 23.3 h, 1xdd 420mg, group trough
# [19] = 420 mg, patient A, sample ID 21, T 0.8 h, 1xdd 420mg, group abs
# [20] = 560 mg, patient A, sample ID 3, T 0.8 h, 1xdd 560mg, group abs
# [21] = 560 mg, patient B, sample ID 7, T 4.1 h, 1xdd 560mg
# [22] = 560 mg, patient B, sample ID 9, T 4.4 h, 1xdd 560mg
# [23] = 560 mg, patient B, sample ID 20, T 3.8 h, 1xdd 560mg
# [24] = 560 mg, patient B, sample ID 23, T 4.1 h, 1xdd 560mg
# [25] = 560 mg, patient B, sample ID 24, T 4.4 h, 1xdd 560mg
# [26] = patient A, sample ID 15, T NA, 1xdd 420mg, omitted (no group)
# [27] = patient A, sample ID 22, T NA, 1xdd 420mg, omitted (no group)
smiles,measurement,setting,value
"Nc1ncnc2c1c(-c1ccc(Oc3ccccc3)cc1)nn2[C@@H]1CCCN(C(=O)C(O)CO)C1 (some centres unmarked) [DHI, dihydrodiol-ibrutinib]",Tmax,[1],3.9 h
same,half-life,[1],6.1 h
same,concentration at 1.4 h,[1]; [10],43.9 nM
same,concentration at 0.5 h,[1]; [11],51.6 nM
same,concentration at 0.8 h,[1]; [12],48.3 nM
same,concentration at 22.7 h,[1]; [13],86.6 nM
same,concentration at 22.2 h,[1]; [14],90.7 nM
same,concentration at 22.6 h,[1]; [15],45.3 nM
same,concentration at 2.5 h,"[1]; 420 mg, patient A, 1xdd 420mg",404 nM
same,concentration at 3.8 h,[1]; [16],195 nM
same,concentration at 1.5 h,[1]; [17],24 nM
same,concentration at 23.3 h,[1]; [18],30.5 nM
same,concentration at 0.8 h,[1]; [19],188 nM
same,concentration at 0.8 h,[1]; [20],17.5 nM
same,concentration at 2.8 h,"[1]; 560 mg, patient B, 1xdd 560mg",346 nM
same,concentration at 4.1 h,[1]; [21],523 nM
same,concentration at 4.4 h,[1]; [22],393 nM
same,concentration at 2.4 h,"[1]; 560 mg, patient B, 1xdd 560mg",450 nM
same,concentration at 3.9 h,"[1]; 560 mg, patient B, 1xdd 560mg",542 nM
same,concentration at 3.8 h,[1]; [23],524 nM
same,concentration at 4.1 h,[1]; [24],468 nM
same,concentration at 4.4 h,[1]; [25],484 nM
same,Concentration,[1]; [26],59.3 nM
same,Concentration,[1]; [27],< LLOQ
same,half-life,[2],59 h
same,AUC(0-t),[2],0.149 µM·h
same,Exposure relative to Sum of quantified compounds,[2],23%
same,Exposure relative to ibrutinib,[2],46%
Nc1ncnc2c1c(-c1ccc(Oc3ccccc3)cc1)nn2[C@@H]1CCCN(C(=O)CCSC[C@H](N)C(=O)NCC(=O)O)C1 [ICGS],Tmax,[1],2.6 h
same,half-life,[1],3 h
same,concentration at 1.4 h,[1]; [10],6.7 nM
same,concentration at 0.5 h,[1]; [11],5.4 nM
same,concentration at 0.8 h,[1]; [12],7.3 nM
same,concentration at 22.7 h,[1]; [13],5.6 nM
same,concentration at 22.2 h,[1]; [14],3.7 nM
same,concentration at 22.6 h,[1]; [15],3 nM
same,concentration at 2.5 h,"[1]; 420 mg, patient A, 1xdd 420mg",412 nM
same,concentration at 3.8 h,[1]; [16],72.5 nM
same,concentration at 1.5 h,[1]; [17],2.2 nM
same,concentration at 23.3 h,[1]; [18],0.6 nM
same,concentration at 0.8 h,[1]; [19],11.9 nM
same,concentration at 0.8 h,[1]; [20],9.7 nM
same,concentration at 2.8 h,"[1]; 560 mg, patient B, 1xdd 560mg",160 nM
same,concentration at 4.1 h,[1]; [21],191 nM
same,concentration at 4.4 h,[1]; [22],88.1 nM
same,concentration at 2.4 h,"[1]; 560 mg, patient B, 1xdd 560mg",73.2 nM
same,concentration at 3.9 h,"[1]; 560 mg, patient B, 1xdd 560mg",226 nM
same,concentration at 3.8 h,[1]; [23],78 nM
same,concentration at 4.1 h,[1]; [24],239 nM
same,concentration at 4.4 h,[1]; [25],160 nM
same,Concentration,[1]; [26],5.1 nM
same,Concentration,[1]; [27],< LLOQ
same,half-life,[2],40.1 h
same,AUC(0-t),[2],0.0949 µM·h
same,Exposure relative to Sum of quantified compounds,[2],14%
same,Exposure relative to ibrutinib,[2],29%
Nc1ncnc2c1c(-c1ccc(Oc3ccccc3)cc1)nn2[C@@H]1CCCN(C(=O)CCSC[C@H](N)C(=O)O)C1 [ICYS],Tmax,[1],4.4 h
same,half-life,[1],4.2 h
same,concentration at 1.4 h,[1]; [10],5 nM
same,concentration at 0.5 h,[1]; [11],5.1 nM
same,concentration at 0.8 h,[1]; [12],5.6 nM
same,concentration at 22.7 h,[1]; [13],6.4 nM
same,concentration at 22.2 h,[1]; [14],5 nM
same,concentration at 22.6 h,[1]; [15],4.7 nM
same,concentration at 2.5 h,"[1]; 420 mg, patient A, 1xdd 420mg",186 nM
same,concentration at 3.8 h,[1]; [16],32.1 nM
same,concentration at 1.5 h,[1]; [17],2.3 nM
same,concentration at 23.3 h,[1]; [18],2.6 nM
same,concentration at 0.8 h,[1]; [19],12 nM
same,concentration at 0.8 h,[1]; [20],3.9 nM
same,concentration at 2.8 h,"[1]; 560 mg, patient B, 1xdd 560mg",92.8 nM
same,concentration at 4.1 h,[1]; [21],170 nM
same,concentration at 4.4 h,[1]; [22],89.2 nM
same,concentration at 2.4 h,"[1]; 560 mg, patient B, 1xdd 560mg",210 nM
same,concentration at 3.9 h,"[1]; 560 mg, patient B, 1xdd 560mg",143 nM
same,concentration at 3.8 h,[1]; [23],78.7 nM
same,concentration at 4.1 h,[1]; [24],194 nM
same,concentration at 4.4 h,[1]; [25],210 nM
same,Concentration,[1]; [26],12.1 nM
same,Concentration,[1]; [27],< LLOQ
same,half-life,[2],78.3 h
same,AUC(0-t),[2],0.0877 µM·h
same,Exposure relative to Sum of quantified compounds,[2],13%
same,Exposure relative to ibrutinib,[2],27%
Nc1ncnc2c1c(-c1ccc(Oc3ccccc3)cc1)nn2[C@@H]1CCCN(C(=O)CCSC[C@H](NC(=O)CC[C@H](N)C(=O)O)C(=O)NCC(=O)O)C1 [IGSH],uptake into ciPTEC,[3]; incubating with IGSH (1 μM) directly for 4 h,no uptake
same,half-life at 500 nM,[4],0.5 h
same,Km,[5],0.588 µM
same,Vmax,[5],25.8 μmol∙min^−1∙U^−1
same,Tmax,[1],2.8 h
same,concentration at 2.5 h,"[1]; 420 mg, patient A, 1xdd 420mg",1.5 nM
same,concentration at 3.8 h,[1]; [16],0.5 nM
same,concentration at 0.8 h,[1]; [20],0.5 nM
same,concentration at 2.8 h,"[1]; 560 mg, patient B, 1xdd 560mg",3.5 nM
same,concentration at 4.1 h,[1]; [21],1.5 nM
same,concentration at 4.4 h,[1]; [22],0.8 nM
same,concentration at 2.4 h,"[1]; 560 mg, patient B, 1xdd 560mg",0.8 nM
same,concentration at 3.9 h,"[1]; 560 mg, patient B, 1xdd 560mg",1.9 nM
same,concentration at 3.8 h,[1]; [23],0.8 nM
same,concentration at 4.1 h,[1]; [24],2.2 nM
same,concentration at 4.4 h,[1]; [25],1.4 nM
same,Concentration,"[1]; patient A, sample ID 2, T 1.4 h, 1xdd 420mg, group abs",< LLOQ
same,Concentration,"[1]; patient A, sample ID 5, T 0.5 h, 1xdd 420mg, group abs",< LLOQ
same,Concentration,"[1]; patient A, sample ID 6, T 0.8 h, 1xdd 420mg, group abs",< LLOQ
same,Concentration,"[1]; patient A, sample ID 8, T 22.7 h, 1xdd 420mg, group trough",< LLOQ
same,Concentration,"[1]; patient A, sample ID 10, T 22.2 h, 1xdd 420mg, group trough",< LLOQ
same,Concentration,"[1]; patient A, sample ID 11, T 22.6 h, 1xdd 420mg, group trough",< LLOQ
same,Concentration,[1]; [26],< LLOQ
same,Concentration,"[1]; patient A, sample ID 16, T 1.5 h, 1xdd 420mg, group abs",< LLOQ
same,Concentration,"[1]; patient A, sample ID 19, T 23.3 h, 1xdd 420mg, group trough",< LLOQ
same,Concentration,"[1]; patient A, sample ID 21, T 0.8 h, 1xdd 420mg, group abs",< LLOQ
same,Concentration,[1]; [27],< LLOQ
same,Ctrough,"[1]; patients A and B, 'trough' samples n = 4, mean ± SD (range)",<0.5 nM
same,metabolism of IGSH to ICGS faster,[6]; conditioned medium (pre-incubated with ciPTEC for 48 h),36%
same,IGSH metabolized faster,[6]; medium with 10% calf serum compared to serum-free samples,32%
CSCCC(=O)N1CCC[C@@H](n2nc(-c3ccc(Oc4ccccc4)cc3)c3c(N)ncnc32)C1 [S-methyl-ibrutinib],detection as secondary bioactivation-metabolite of ICYS,[3]; after 48 h with ibrutinib,detected
CC1(C)C[C@@H]1C(=O)N/C(=C\CCCCSC[C@H](N)C(=O)O)C(=O)O [cilastatin],IC50,[7],100 µM
C=C(CC)C(=O)c1ccc(OCC(=O)O)c(Cl)c1Cl [ethacrynic acid],IC97,[8],15 µM
same,effect on formation of IGSH in ciPTEC lysate,[9],inhibited
Nc1ncnc2c1c(-c1ccc(Oc3ccccc3)cc1)nn2C1CCCN(C(=O)CCSC2OC(C(=O)O)C(O)C(O)C2O)C1 (centres unmarked) [ibrutinib-S-glucuronide],detection as secondary bioactivation-metabolite of ICYS,[3]; 4 h incubation with ibrutinib,clearly found
